Measured values as given in patent US5726164A, “Nanosuspensions for intravenous administration” (Novartis Corporation, priority 1995, dated 1998).
“Also recorded” adds a separate entry of the source.

Key:
water solubility = format: physicochemical; conditions: at room temperature
Source text: A staurosporin derivative that is sparingly soluble in water is disclosed, for example, in U.S. Pat. No. 5,093,330 and is derived from staurosporin by additional substitution of the free hydrogen atom at the nitrogen of the N-methylamino substituent. Poor solubility in water is a characteristic property of staurosporin derivatives, which renders them unsuitable for intravenous dosage forms.

[1] = cited from earlier work

CO[C@@H]1[C@H](N(C)C(=O)c2ccccc2)C[C@H]2O[C@]1(C)n1c3ccccc3c3c4c(c5c6ccccc6n2c5c31)C(=O)NC4 [N-benzoyl-staurosporin]
solubility (water solubility): < 0.1 µg/mL

CN[C@@H]1C[C@H]2O[C@@](C)([C@@H]1OC)n1c3ccccc3c3c4c(c5c6ccccc6n2c5c31)C(=O)NC4 [staurosporin]
water solubility (in words) [1]: particularly poor water solubility; also recorded: extremely low water solubility
